Results taken from PubChem BioAssay AID226 (DTP/NCI, 2004).
Several values for one entry are separate records, joined by “and”; a condition that tells them apart may be missing. Equal values may be shown once. Toxic doses and inconclusive results are not listed. The calls were made as follows: active = survival T/C of 150% or more; inactive = T/C below 125% in these data.

Tested on: B6C3F1 mice, intracerebral ependymoblastoma, median survival T/C
Test: NCI In Vivo Anticancer Drug Screen. Data for tumor model Ependymoblastoma (intracerebral) in B6C3F1 mice
Conditions: endpoint: median survival time, higher = longer survival
Protocol: The antitumor activity of compounds was measured in mice bearing transplantable tumors. Survival or tumor size were measured and the results are expressed as the measurement made in the treated group (T) divided by the measurement made in the vehicle treated control group (C). The tumor model used in this assay is Ependymoblastoma (intracerebral) in B6C3F1 mice

Measured: T/C

O=C1c2ccccc2C(=O)c2c(NCCNCCO)ccc(NCCNCCO)c21
inactive: dose: 1.0 mg/kg/injection, schedule: Q04DX003 (ip), vehicle: Klucel (hydroxypropylcellulose) (HPC) 107 % of control | dose: 1.0 mg/kg/injection, schedule: Q04DX003 (ip), vehicle: water 102 % of control | dose: 2.0 mg/kg/injection, schedule: Q01DX005 (ip), vehicle: saline with Tween-80 102 % of control [middle of 4 runs] | dose: 2.0 mg/kg/injection, schedule: Q04DX003 (ip), vehicle: Klucel (hydroxypropylcellulose) (HPC) 97 % of control | dose: 2.0 mg/kg/injection, schedule: Q04DX003 (ip), vehicle: water 101 % of control | dose: 4.0 mg/kg/injection, schedule: Q01DX005 (ip), vehicle: saline with Tween-80 101 % of control [middle of 4 runs] | dose: 4.0 mg/kg/injection, schedule: Q04DX003 (ip), vehicle: Klucel (hydroxypropylcellulose) (HPC) 101 % of control | dose: 4.0 mg/kg/injection, schedule: Q04DX003 (ip), vehicle: water 92 % of control | dose: 8.0 mg/kg/injection, schedule: Q01DX005 (ip), vehicle: saline with Tween-80 109 % of control [middle of 4 runs] | dose: 8.0 mg/kg/injection, schedule: Q04DX003 (ip), vehicle: Klucel (hydroxypropylcellulose) (HPC) 110 % of control | dose: 8.0 mg/kg/injection, schedule: Q04DX003 (ip), vehicle: water 102 % of control | dose: 16.0 mg/kg/injection, schedule: Q01DX005 (ip), vehicle: saline with Tween-80 113 % of control [middle of 4 runs] | dose: 16.0 mg/kg/injection, schedule: Q04DX003 (ip), vehicle: Klucel (hydroxypropylcellulose) (HPC) 108 % of control | dose: 16.0 mg/kg/injection, schedule: Q04DX003 (ip), vehicle: water 92 % of control | dose: 32.0 mg/kg/injection, schedule: Q01DX005 (ip), vehicle: saline with Tween-80 94 % of control and 110 % of control and 116 % of control | dose: 32.0 mg/kg/injection, schedule: Q04DX003 (ip), vehicle: Klucel (hydroxypropylcellulose) (HPC) 108 % of control | dose: 32.0 mg/kg/injection, schedule: Q04DX003 (ip), vehicle: water 94 % of control | dose: 64.0 mg/kg/injection, schedule: Q04DX003 (ip), vehicle: Klucel (hydroxypropylcellulose) (HPC) 97 % of control | dose: 128.0 mg/kg/injection, schedule: Q04DX003 (ip), vehicle: Klucel (hydroxypropylcellulose) (HPC) 92 % of control

COc1c(C)c2c(c(O)c1C/C=C(\C)CCC(=O)O)C(=O)OC2
inactive: dose: 12.5 mg/kg/injection, schedule: Q01DX005 (ip), vehicle: saline 101 % of control | dose: 25.0 mg/kg/injection, schedule: Q01DX005 (ip), vehicle: saline 105 % of control | dose: 50.0 mg/kg/injection, schedule: Q01DX005 (ip), vehicle: saline 100 % of control | dose: 100.0 mg/kg/injection, schedule: Q01DX005 (ip), vehicle: saline 98 % of control | dose: 200.0 mg/kg/injection, schedule: Q01DX005 (ip), vehicle: saline 102 % of control | dose: 400.0 mg/kg/injection, schedule: Q01DX005 (ip), vehicle: saline 98 % of control
